Results from PMC5468247, “Development of a selective agonist for relaxin family peptide receptor 3” (Scientific Reports, 2017).

Legend:
human RXFP3 [1] = target: T1, human RXFP3 (Homo sapiens, UniProt Q9NSD7); assay: Receptor binding assay, NanoLuc-conjugated R3/I5 tracer competition; details: for binding potency towards RXFP3, in words: compared with R3/I5
T1 construct: expressed in transfected cells; host or cells: HEK293T
T1 sequence (Q9NSD7 1-469): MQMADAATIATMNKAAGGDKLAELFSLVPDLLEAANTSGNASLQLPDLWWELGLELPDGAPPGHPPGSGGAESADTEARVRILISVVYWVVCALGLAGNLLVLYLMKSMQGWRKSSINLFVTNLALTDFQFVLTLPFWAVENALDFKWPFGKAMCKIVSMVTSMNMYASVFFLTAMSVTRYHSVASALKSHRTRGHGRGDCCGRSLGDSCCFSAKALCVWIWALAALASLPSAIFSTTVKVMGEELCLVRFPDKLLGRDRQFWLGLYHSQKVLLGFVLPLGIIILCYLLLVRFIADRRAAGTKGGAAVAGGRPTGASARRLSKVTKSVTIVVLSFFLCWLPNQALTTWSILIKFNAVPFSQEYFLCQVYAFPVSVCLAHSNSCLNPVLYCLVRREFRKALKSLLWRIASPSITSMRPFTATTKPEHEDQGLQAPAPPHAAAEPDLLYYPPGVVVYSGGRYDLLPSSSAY
Description: (§1) Specific binding data are expressed as means ± SE (n = 3) and fitted to sigmoidal curves using SigmaPlot 10.0 software.
(§2) Briefly, HEK293T cells were transiently transfected with an expression construct of human RXFP3 or human RXFP4. On the next day, transfected cells were trypsinised, seeded into 96-well plates, and continuously cultured for 24–36 h to ~100% confluence. […] After incubation at 21 °C for 2 h, binding solution was removed and cells were washed twice with ice-cold phosphate-buffered saline (200 μl/well for each wash). Thereafter, cells were lysed by lysis solution (100 μl/well, Promega, Madison, WI, USA) and cell lysates were transferred to a white opaque 96-well plate (50 μl/well). After mixing with freshly diluted substrate (50 μl/well), bioluminescence was immediately measured on a SpectraMax M5 plate reader (Molecular Devices, Sunnyvale, CA, USA) in luminescence mode. […] The calculated specific binding data were expressed as means ± standard error (SE; n = 3) and fitted to sigmoidal curves using SigmaPlot 10.0 software.

human RXFP4 [2] = target: T2, human RXFP4 (Homo sapiens, UniProt Q8TDU9); assay: as above
T2 construct: expressed in transfected cells; host or cells: HEK293T
Description: as §1, §2

human RXFP3 [3] = target: T1, human RXFP3; assay: Receptor activation assay, CRE-controlled NanoLuc reporter; format: cell-based; details: for activation potency towards RXFP3, in words / fold lower activation potency towards RXFP3 compared with R3/I5: CRE-NanoLuc reporter, human RXFP3; for activation potency towards RXFP3, in words: compared with R3/I5; for fold lower activation potency towards RXFP3 compared with R3/I5: relative to R3/I5; for fold higher activation potency towards RXFP3 than towards RXFP4: selectivity RXFP3 over RXFP4, from activation assays
From the text: (§3) HEK293T cells transiently cotransfected with a CRE-controlled NanoLuc reporter vector and the expression construct of human RXFP3 or human RXFP4 were used for activation assays. The measured bioluminescence data are expressed as means ± SE (n = 3) and fitted to sigmoidal or linear curves using SigmaPlot 10.0.
(§4) Briefly, HEK293T cells were transiently cotransfected with the NanoLuc reporter vector pNL1.2/CRE and the expression construct of human RXFP3 or human RXFP4. On the next day, transfected cells were trypsinised, seeded into 96-well plates, and continuously cultured for 24–36 h to ~90% confluence. To initiate activation assays, medium was removed and activation solution (serum-free DMEM medium plus 1% bovine serum albumin) containing 1.0 μM of forskolin and various concentrations of peptide was added (100 μl/well). After continuous culturing at 37 °C for 4 h, activation solution was removed and cells were lysed with lysis solution (100 μl/well, Promega). Cell lysates were then transferred to a white opaque 96-well plate (50 μl/well), mixed with freshly diluted substrate (50 μl/well), and bioluminescence was immediately measured on a SpectraMax M5 plate reader (Molecular Devices) in luminescence mode. The measured data were expressed as means ± SE (n = 3) and fitted to sigmoidal or linear curves using SigmaPlot 10.0 software.

human RXFP4 [4] = target: T2, human RXFP4; assay: as above; format: cell-based; details: relative to R3/I5
From the text: as §3, §4

T2 sequence (Q8TDU9 whole entry): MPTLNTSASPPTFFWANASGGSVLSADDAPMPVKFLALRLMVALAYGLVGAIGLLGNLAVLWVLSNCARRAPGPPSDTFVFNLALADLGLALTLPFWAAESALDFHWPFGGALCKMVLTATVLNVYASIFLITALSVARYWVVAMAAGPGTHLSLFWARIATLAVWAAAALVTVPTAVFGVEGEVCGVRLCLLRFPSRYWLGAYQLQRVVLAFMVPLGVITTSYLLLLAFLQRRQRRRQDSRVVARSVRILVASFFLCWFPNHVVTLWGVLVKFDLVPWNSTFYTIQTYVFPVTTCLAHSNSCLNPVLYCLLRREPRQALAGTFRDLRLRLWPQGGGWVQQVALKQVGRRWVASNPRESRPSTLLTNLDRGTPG

SMILES	binding potency towards RXFP3, in words (human RXFP3 [1])	binding potency towards RXFP4, in words (human RXFP4 [2]; compared with R3/I5)	activation potency towards RXFP3, in words (human RXFP3 [3])	fold lower activation potency towards RXFP4 compared with R3/I5 (human RXFP4 [4])	fold lower binding potency for RXFP3 compared with R3/I5 (human RXFP3 [1]; relative to R3/I5)	fold lower activation potency towards RXFP3 compared with R3/I5 (human RXFP3 [3])	fold higher activation potency towards RXFP3 than towards RXFP4 (human RXFP3 [3])	fold lower binding potency towards RXFP4 compared with R3/I5 (human RXFP4 [2]; relative to R3/I5) [fold]
CC[C@H](C)[C@@H]1NC(=O)[C@H](Cc2ccccc2)NC(=O)[C@H](CCC(=O)O)NC(=O)[C@H](CCCNC(=N)N)NC(=O)CNC(=O)[C@@H](NC(=O)[C@H](CC(C)C)NC(=O)[C@H](CCCNC(=N)N)NC(=O)[C@@H](NC(=O)CNC(=O)[C@H](Cc2ccc(O)cc2)NC(=O)[C@@H]2CCCN2C(=O)[C@H](C)NC(=O)[C@H](C)NC(=O)[C@H](CCCNC(=N)N)NC(=O)[C@@H]2CCC(=O)N2)C(C)C)CSSC[C@@H]2NC(=O)[C@@H](NC(=O)[C@H](CC(C)C)NC(=O)[C@@H](NC(=O)[C@H](CCC(N)=O)NC(=O)[C@H](CC(C)C)NC(=O)[C@H](CC(=O)O)NC(=O)[C@H](CCC(N)=O)NC(=O)[C@H](CCCNC(=N)N)NC(=O)[C@H](CO)NC(=O)[C@H](CCCNC(=N)N)NC(=O)[C@H](CCCNC(=N)N)NC(=O)[C@H](CO)NC(=O)[C@@H](N)CCCNC(=N)N)[C@@H](C)O)CSSC[C@H](NC(=O)CNC(=O)[C@H](CC(=O)O)NC(=O)[C@H]([C@@H](C)O)NC2=O)C(=O)N[C@@H](CO)C(=O)N[C@@H](CCSC)C(=O)N[C@@H]([C@@H](C)O)C(=O)N[C@@H](CC(=O)O)C(=O)N[C@@H](CC(C)C)C(=O)N[C@@H](CO)C(=O)N[C@@H](C)C(=O)N[C@@H](CC(C)C)C(=O)N[C@H](C(=O)O)CSSC[C@@H](C(=O)N[C@@H](CO)C(=O)NCC(=O)N[C@@H](CO)C(=O)N[C@@H](CCCNC(=N)N)C(=O)N[C@@H](Cc2c[nH]c3ccccc23)C(=O)O)NC(=O)[C@H]([C@@H](C)O)NC(=O)[C@H](Cc2ccccc2)NC(=O)[C@H]([C@@H](C)CC)NC(=O)[C@H](C(C)C)NC(=O)[C@H](C)NC(=O)[C@H](CCCNC(=N)N)NC1=O [[G(B23)S]R3/I5]	retained considerable binding potency	retained high binding potency	lost all activation potency	~ 100 fold				
CC[C@H](C)[C@@H]1NC(=O)[C@H](Cc2ccccc2)NC(=O)[C@H](CCC(=O)O)NC(=O)[C@H](CCCNC(=N)N)NC(=O)CNC(=O)[C@@H](NC(=O)[C@H](CC(C)C)NC(=O)[C@H](CCCNC(=N)N)NC(=O)[C@@H](NC(=O)CNC(=O)[C@H](Cc2ccc(O)cc2)NC(=O)[C@@H]2CCCN2C(=O)[C@H](C)NC(=O)[C@H](C)NC(=O)[C@H](CCCNC(=N)N)NC(=O)[C@@H]2CCC(=O)N2)C(C)C)CSSC[C@@H]2NC(=O)[C@@H](NC(=O)[C@H](CC(C)C)NC(=O)[C@@H](NC(=O)[C@H](CCC(N)=O)NC(=O)[C@H](CC(C)C)NC(=O)[C@H](CC(=O)O)NC(=O)[C@H](CCC(N)=O)NC(=O)[C@H](CCCNC(=N)N)NC(=O)[C@H](CO)NC(=O)[C@H](CCCNC(=N)N)NC(=O)[C@H](CCCNC(=N)N)NC(=O)[C@H](CO)NC(=O)[C@@H](N)CCCNC(=N)N)[C@@H](C)O)CSSC[C@H](NC(=O)CNC(=O)[C@H](CC(=O)O)NC(=O)[C@H]([C@@H](C)O)NC2=O)C(=O)N[C@@H](CO)C(=O)N[C@@H](CCSC)C(=O)N[C@@H]([C@@H](C)O)C(=O)N[C@@H](CC(=O)O)C(=O)N[C@@H](CC(C)C)C(=O)N[C@@H](CO)C(=O)N[C@@H](C)C(=O)N[C@@H](CC(C)C)C(=O)N[C@H](C(=O)O)CSSC[C@@H](C(=O)NCC(=O)N[C@H](C(=O)N[C@@H](CO)C(=O)N[C@@H](CCCNC(=N)N)C(=O)N[C@@H](Cc2c[nH]c3ccccc23)C(=O)O)C(C)C)NC(=O)[C@H]([C@@H](C)O)NC(=O)[C@H](Cc2ccccc2)NC(=O)[C@H]([C@@H](C)CC)NC(=O)[C@H](C(C)C)NC(=O)[C@H](C)NC(=O)[C@H](CCCNC(=N)N)NC1=O [[G(B24)V]R3/I5]					~ 5 fold	~ 10 fold	~ 10 fold	
CC[C@H](C)[C@@H]1NC(=O)[C@H](Cc2ccccc2)NC(=O)[C@H](CCC(=O)O)NC(=O)[C@H](CCCNC(=N)N)NC(=O)CNC(=O)[C@@H](NC(=O)[C@H](CC(C)C)NC(=O)[C@H](CCCNC(=N)N)NC(=O)[C@@H](NC(=O)CNC(=O)[C@H](Cc2ccc(O)cc2)NC(=O)[C@@H]2CCCN2C(=O)[C@H](C)NC(=O)[C@H](C)NC(=O)[C@H](CCCNC(=N)N)NC(=O)[C@@H]2CCC(=O)N2)C(C)C)CSSC[C@@H]2NC(=O)[C@@H](NC(=O)[C@H](CC(C)C)NC(=O)[C@@H](NC(=O)[C@H](CCC(N)=O)NC(=O)[C@H](CC(C)C)NC(=O)[C@H](CC(=O)O)NC(=O)[C@H](CCC(N)=O)NC(=O)[C@H](CCCNC(=N)N)NC(=O)[C@H](CO)NC(=O)[C@H](CCCNC(=N)N)NC(=O)[C@H](CCCNC(=N)N)NC(=O)[C@H](CO)NC(=O)[C@@H](N)CCCNC(=N)N)[C@@H](C)O)CSSC[C@H](NC(=O)CNC(=O)[C@H](CC(=O)O)NC(=O)[C@H]([C@@H](C)O)NC2=O)C(=O)N[C@@H](CO)C(=O)N[C@@H](CCSC)C(=O)N[C@@H]([C@@H](C)O)C(=O)N[C@@H](CC(=O)O)C(=O)N[C@@H](CC(C)C)C(=O)N[C@@H](CO)C(=O)N[C@@H](C)C(=O)N[C@@H](CC(C)C)C(=O)N[C@H](C(=O)O)CSSC[C@@H](C(=O)NCC(=O)N[C@H](C(=O)N[C@@H](CO)C(=O)N[C@@H](CCCNC(=N)N)C(=O)N[C@@H](Cc2c[nH]c3ccccc23)C(=O)O)[C@@H](C)O)NC(=O)[C@H]([C@@H](C)O)NC(=O)[C@H](Cc2ccccc2)NC(=O)[C@H]([C@@H](C)CC)NC(=O)[C@H](C(C)C)NC(=O)[C@H](C)NC(=O)[C@H](CCCNC(=N)N)NC1=O [[G(B24)T]R3/I5]						~ 20 fold	~ 2 fold	
CC[C@H](C)[C@@H]1NC(=O)[C@H](Cc2ccccc2)NC(=O)[C@H](CCC(=O)O)NC(=O)[C@H](CCCNC(=N)N)NC(=O)CNC(=O)[C@@H](NC(=O)[C@H](CC(C)C)NC(=O)[C@H](CCCNC(=N)N)NC(=O)[C@@H](NC(=O)CNC(=O)[C@H](Cc2ccc(O)cc2)NC(=O)[C@@H]2CCCN2C(=O)[C@H](C)NC(=O)[C@H](C)NC(=O)[C@H](CCCNC(=N)N)NC(=O)[C@@H]2CCC(=O)N2)C(C)C)CSSC[C@@H]2NC(=O)[C@@H](NC(=O)[C@H](CC(C)C)NC(=O)[C@@H](NC(=O)[C@H](CCC(N)=O)NC(=O)[C@H](CC(C)C)NC(=O)[C@H](CC(=O)O)NC(=O)[C@H](CCC(N)=O)NC(=O)[C@H](CCCNC(=N)N)NC(=O)[C@H](CO)NC(=O)[C@H](CCCNC(=N)N)NC(=O)[C@H](CCCNC(=N)N)NC(=O)[C@H](CO)NC(=O)[C@@H](N)CCCNC(=N)N)[C@@H](C)O)CSSC[C@H](NC(=O)CNC(=O)[C@H](CC(=O)O)NC(=O)[C@H]([C@@H](C)O)NC2=O)C(=O)N[C@@H](CO)C(=O)N[C@@H](CCSC)C(=O)N[C@@H]([C@@H](C)O)C(=O)N[C@@H](CC(=O)O)C(=O)N[C@@H](CC(C)C)C(=O)N[C@@H](CO)C(=O)N[C@@H](C)C(=O)N[C@@H](CC(C)C)C(=O)N[C@H](C(=O)O)CSSC[C@@H](C(=O)NCC(=O)N[C@@H](CO)C(=O)N[C@@H](CO)C(=O)N[C@@H](CCCNC(=N)N)C(=O)N[C@@H](Cc2c[nH]c3ccccc23)C(=O)O)NC(=O)[C@H]([C@@H](C)O)NC(=O)[C@H](Cc2ccccc2)NC(=O)[C@H]([C@@H](C)CC)NC(=O)[C@H](C(C)C)NC(=O)[C@H](C)NC(=O)[C@H](CCCNC(=N)N)NC1=O [[G(B24)S]R3/I5]	retained full activation and binding potencies		retained full activation and binding potencies	20 fold			20 fold	2
